Values joined by “and” are separate entries in the source; they are usually repeats but may differ in a detail not shown here. Equal entries are not always repeated.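 Values below derive from 48-hour exposures of cells grown in 96-well plates, with endpoints linearly interpolated between the two concentrations bracketing the appropriate inhibition level. GI50 = concentration required for 50% inhibition of growth. TGI marks complete inhibition of growth.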 Where a SMILES comes first, the peptide text is derived from it.
What was measured:
Test in all cases: NCI-60 cell line screen, 48 h
[1] = tested on: LXFL 529 NSCLC
[2] = tested on: SN12C renal
[3] = tested on: SK-MEL-28 melanoma
[4] = tested on: IGROV1 ovarian
[5] = tested on: HOP-62 NSCLC
[6] = tested on: SNB-19 CNS
[7] = tested on: SR leukemia
[8] = tested on: DMS 273 small cell lung
[9] = tested on: NCI-H522 lung
[10] = tested on: SNB-78 CNS
[11] = tested on: HL-60(TB) leukemia

SMILES	TGI [1]	TGI [2]	TGI [3]	TGI [4]	TGI [5]	TGI [6]	TGI [7]	TGI [8]	TGI [9]	TGI [10]	TGI [11]	GI50 [1]	GI50 [2]	GI50 [3]	GI50 [9]	GI50 [4]	GI50 [5]	GI50 [6]	GI50 [11]	GI50 [7]
CCC(C)C1NC(=O)C2CCCN2C(=O)CNC(=O)C(C)NC(=O)C(Cc2ccccc2)NC(=O)C(C(C)C)NC1=O (stereo not given) (cyclo(GPIVFA); configuration not given here)	> 100 µM	> 100 µM	> 100 µM	> 100 µM	> 100 µM	> 100 µM	> 100 µM													
O=[N+]([O-])c1ccccc1C=NC12CC3CC(CC(C3)C1)C2	> 100 µM	> 100 µM	> 100 µM	> 100 µM	> 100 µM	> 100 µM		> 100 µM	> 100 µM	> 100 µM	57.1 µM									
CC(=O)[CH-]C(=O)c1ccccc1.CC(=O)[CH-]C(=O)c1ccccc1.Cl.[O-]c1ccccn1.[O-]c1ccccn1.[Ti+4]	> 100 µM	> 100 µM	> 100 µM	> 100 µM	> 100 µM	> 100 µM			> 100 µM		> 100 µM	> 100 µM	> 100 µM	> 100 µM	> 100 µM	> 100 µM	> 100 µM	> 100 µM	> 100 µM	
Cc1ccc(-c2cc(=O)c3cc(C)c(C)c(C(=O)O)c3o2)cc1N	> 100 µM	> 100 µM	> 100 µM	> 100 µM		> 100 µM			> 100 µM	> 100 µM										
COC(=O)N/N=C(/CCC(=O)Nc1ccc(C)c(C)c1)CC(=O)C(C)(C)C	> 100 µM	> 100 µM	> 100 µM	> 100 µM	> 100 µM	> 100 µM		> 100 µM	> 100 µM		> 100 µM									
Clc1ccc2nc(-c3ccccc3)nc(Cl)c2c1	> 100 µM	> 100 µM	> 100 µM	> 100 µM	79.9 µM	> 100 µM	> 100 µM	> 100 µM		> 100 µM	31.1 µM									
COc1ccc(/C=c2/sc3n(c2=O)NC2(CCC(C)CC2)NN=3)cc1 (stereo not given)	> 100 µM	> 100 µM	> 100 µM	> 100 µM	> 100 µM	> 100 µM	> 100 µM	> 100 µM	> 100 µM	> 100 µM										
COC(=O)C1C=NNC1C(=O)OC (stereo not given)	> 100 µM	> 100 µM		> 100 µM	> 100 µM	> 100 µM		> 100 µM	> 100 µM	> 100 µM	> 100 µM									
Cc1cc(C(=O)O)c(C)n1-c1cccc(C(=O)O)c1		> 100 µM	> 100 µM	> 100 µM	> 100 µM	> 100 µM	> 100 µM		> 100 µM		> 100 µM		> 100 µM	> 100 µM	> 100 µM	> 100 µM	> 100 µM	> 100 µM	> 100 µM	> 100 µM
O=C1Nc2ccccc2/C1=C\c1nc(C2CCN(S(=O)(=O)c3ccc(F)cc3)CC2)n2ccccc12		> 100 µM	> 100 µM	> 100 µM	6.37 µM	33.3 µM	> 100 µM		12 µM		> 100 µM		3.05 µM	> 100 µM	1.94 µM	2.69 µM	2.06 µM	3.99 µM	> 100 µM	> 100 µM
Oc1ccc(CCNCc2cc3c(cc2Br)OCO3)cc1		> 100 µM	98.2 µM	> 100 µM	> 100 µM	> 100 µM	> 100 µM		> 100 µM		84.4 µM									
N=C(N)c1ccc(NCCOCCNc2ccc(C(=N)N)cc2)cc1		> 100 µM	> 100 µM	> 100 µM	> 100 µM	> 100 µM	> 100 µM		> 100 µM		> 100 µM		4.28 µM	73.3 µM	29.8 µM	60.5 µM	33.2 µM	27.3 µM	60.9 µM	49 µM
COc1cccc2c1C(=O)c1c(O)c3c(c(O)c1C2=O)C[C@@](O)(C(=O)CO)CC3OC1CC(O)C(O)C(C)O1 (stereo not given in full)	9.26 µM	8.19 µM	2.28 µM	23.6 µM	0.217 µM	2.93 µM		0.4 µM	1.5 µM	9.41 µM	0.55 µM									
C[C@]12CC[C@H]3[C@@H](C[C@@H]4SC(Nc5ccccc5)=N[C@@]45CC(O)CC[C@]35C)[C@@H]1CCC2O (stereo not given in full)		3.28 µM	3.99 µM	7.85 µM	6.54 µM	3.77 µM	6.1 µM		4.5 µM		6.87 µM		1.65 µM	1.68 µM	1.9 µM	2.78 µM	2.47 µM	1.86 µM	2.02 µM	0.241 µM
Cc1cc(C(=O)NC(CCC(=O)O)C(=O)O)sc1CCC1CNc2nc(N)[nH]c(=O)c2C1 (stereo not given)		> 100 µM	> 100 µM	> 100 µM	> 100 µM	> 100 µM	> 100 µM		> 100 µM		> 100 µM		0.0315 µM and 0.0482 µM	0.0435 µM and 0.0643 µM	< 0.0226 µM and 0.0546 µM	0.0464 µM and 0.192 µM	0.0533 µM and 0.0806 µM	0.0783 µM and 0.606 µM	0.0366 µM and 0.0558 µM	< 0.0156 µM and 0.0263 µM
CCC(=O)Nc1ccccc1C#C/C=C\C#Cc1ccccc1C(F)(F)F		> 50 µM	> 50 µM	> 18.9 µM	> 50 µM	> 50 µM			6.09 µM		> 10.4 µM		2.22 µM	3.65 µM	1.33 µM	3.39 µM	2.42 µM	5.52 µM	1.18 µM	0.386 µM
Cc1ccn2c(CCc3nnc4cc(C)ccn34)nnc2c1		> 100 µM	> 100 µM	> 100 µM	> 100 µM	> 100 µM	> 100 µM		> 100 µM		0.623 µM									

SMILES	TGI [1]	TGI [2]	TGI [3]	TGI [4]	TGI [5]	TGI [6]	TGI [7]	TGI [8]	TGI [9]	TGI [10]	TGI [11]	GI50 [1]	GI50 [2]	GI50 [3]	GI50 [9]	GI50 [4]	GI50 [5]	GI50 [6]	GI50 [11]	GI50 [7]
COC(=O)C(CBr)CBr	3.22 µM	9.28 µM	9.36 µM	25.5 µM	40.7 µM	13.3 µM		29.3 µM	4.76 µM	3.59 µM	1.41 µM									
CCN(CC)CCN(Cc1ccc(F)cc1)c1ccc(CO)c(Cl)c1		> 100 µM	32.9 µM	3.61 µM	63.3 µM	> 100 µM	67.9 µM		68.2 µM		> 58.5 µM		27.7 µM	17.2 µM	27.9 µM	0.832 µM	9.84 µM	> 100 µM	23.1 µM	23.5 µM
CCCCNC(=O)c1cc(NCc2cc(O)ccc2O)ccc1O		29.5 µM	30.3 µM	62.7 µM	> 100 µM	> 100 µM	> 100 µM		2.94 µM		6.2 µM		13.6 µM	16.3 µM	1.32 µM	26.1 µM	71.8 µM	41.4 µM	2.06 µM	5.35 µM
Nc1nc(N)c2c(n1)NC(c1ccccc1)C1CCc3ccccc3C1=N2 (stereo not given)		21.3 µM	20.2 µM	19.4 µM	21.3 µM	29.8 µM	> 100 µM		21.2 µM		6.01 µM		7.33 µM	7.72 µM	4.53 µM	4.45 µM	7.87 µM	15.6 µM	2.37 µM	4.52 µM
COc1ccc(/C=C2\CN(Cc3cn(CCNc4ccnc5cc(Cl)ccc45)nn3)C/C(=C\c3ccc(OC)c(OC)c3)C2=O)cc1OC		6.79 µM	5.97 µM	7.09 µM	26.2 µM	> 100 µM	> 100 µM		6.38 µM		9.37 µM		2.36 µM	2.29 µM	2.24 µM	2.67 µM	3.9 µM	3.59 µM	2.42 µM	2.04 µM
Cc1cccc(N2C(=O)C(=O)C(c3nc4ccccc4s3)/C(=N/NC(=S)NN)C2=O)c1C (stereo not given)	> 100 µM	> 100 µM	> 100 µM	> 100 µM	> 100 µM	> 100 µM		> 100 µM	> 100 µM	> 100 µM										
C[C@]1(Cn2ccnn2)C(C(=O)O)N2C(=O)CC2S1(=O)=O (stereo not given in full)		> 100 µM	> 100 µM	> 100 µM	> 100 µM	> 100 µM	> 100 µM		> 100 µM		> 100 µM		> 100 µM	> 100 µM	> 100 µM	> 100 µM	> 100 µM	> 100 µM	> 100 µM	> 100 µM
COc1cc2ncnc(Nc3ccc4c(cnn4Cc4ccccc4)c3)c2cc1OC		> 25 µM	> 25 µM	> 25 µM	> 25 µM	> 25 µM	> 25 µM		> 25 µM		> 21 µM		> 17 µM	> 25 µM	0.724 µM	4.83 µM	> 25 µM	> 25 µM	12.5 µM	24.9 µM
O=[N+]([O-])c1cc(Cl)ccc1OCc1ccccc1	> 100 µM	> 100 µM	> 100 µM	> 100 µM	> 100 µM		> 100 µM	> 100 µM		> 100 µM	> 100 µM									
N#Cc1c(N)nc(N)nc1N[C@H](c1nc2c(F)ccc(Cl)c2c(=O)n1-c1cccnc1)C1CC1		> 100 µM	> 100 µM	5.31 µM	> 100 µM	28.6 µM	52.5 µM		> 100 µM		82.8 µM		10.8 µM	7.23 µM	34.2 µM	1.22 µM	3.62 µM	13 µM	2.28 µM	13.4 µM
CC1=C(C(=O)Nc2ccc([N+](=O)[O-])cc2)C(c2ccc3c(c2)OCO3)C(C(=O)Nc2ccc([N+](=O)[O-])cc2)=C(C)N1	> 100 µM	> 100 µM	> 100 µM	> 100 µM	> 100 µM	> 100 µM		97.4 µM	> 100 µM	> 100 µM										
C[n+]1c(-c2ccc(/C=N/NC(=O)c3ccc(C(=O)N/N=C/c4ccc(-c5cn6ccccc6[n+]5C)cc4)cc3)cc2)cn2ccccc21		493 µM	406 µM	> 1000 µM	425 µM	517 µM	218 µM		326 µM		186 µM		213 µM	258 µM	186 µM	> 1000 µM	277 µM	248 µM	2.37 µM	
C/C=C/[C@H]1O[C@@H]2C(=C[C@H]1O)C(=O)O[C@H]2C		33.6 µM	12.1 µM	> 59.9 µM	48.4 µM	> 54.6 µM	> 100 µM		> 42.9 µM		> 100 µM		16.6 µM	0.786 µM	5.02 µM	17.1 µM	23.4 µM	35.6 µM	35.7 µM	7.29 µM
CN[C@@H](C)[C@H](N)c1ccccc1	> 100 µM	> 100 µM	> 100 µM	> 100 µM				> 100 µM	> 100 µM	> 100 µM										
CCCCC(=O)N/N=C/c1c(O)ccc2ccccc12		> 100 µM	> 52.2 µM	7.12 µM	> 100 µM	> 100 µM	3.57 µM		10.2 µM				5.44 µM	2.16 µM	1.77 µM	0.65 µM	7.95 µM	4.26 µM	0.452 µM	0.45 µM
CC(=O)C1=C(C)N(C)C2(O)C=CC(=O)C3=C(O)c4ccccc4C(=O)C312 (stereo not given)		8.81 µM	47.3 µM	> 100 µM	18.4 µM	27 µM	> 100 µM		> 100 µM		> 100 µM		3.13 µM	19.4 µM	23.8 µM	23.5 µM	5.16 µM	2.18 µM	> 100 µM	> 100 µM
C=C1C2CC(OC(C)=O)C3(C)C(c4ccoc4)OC(=O)[C@@H](O)[C@]13OC1C[C@H](OC(C)=O)C(C)(C)[C@H](CC(=O)OC)[C@]12C (stereo not given in full)	> 100 µM	> 100 µM	> 100 µM	> 100 µM		> 100 µM		> 100 µM		> 100 µM	> 100 µM									

— PubChem BioAssay (NCI)
